Data from ChEMBL document CHEMBL1201862, “PubChem BioAssay data set” (2004).
The source made the active and inactive calls.

Tests used:
Type in all cases: functional
[1] = molecular target: Serine/threonine-protein kinase MRCK alpha (Homo sapiens, UniProt Q5VT25)
[2] = molecular target: Serine/threonine-protein kinase BRSK1 (Homo sapiens, UniProt Q8TDC3);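 note: measured within a kinome-wide kinase panel, with the target listed as KIAA1811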
[3] = molecular target: Protein kinase C zeta type (Homo sapiens, UniProt Q05513);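 note: measured as one member of a broad kinase profiling panel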
[4] = molecular target: Mitogen-activated protein kinase 1 (Homo sapiens, UniProt P28482)
[5] = molecular target: Mitogen-activated protein kinase 9 (Homo sapiens, UniProt P45984);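 note: value from a kinome panel profiling assay, MAPK9 panel entry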
Sequence of Mitogen-activated protein kinase 9 (P45984 whole entry): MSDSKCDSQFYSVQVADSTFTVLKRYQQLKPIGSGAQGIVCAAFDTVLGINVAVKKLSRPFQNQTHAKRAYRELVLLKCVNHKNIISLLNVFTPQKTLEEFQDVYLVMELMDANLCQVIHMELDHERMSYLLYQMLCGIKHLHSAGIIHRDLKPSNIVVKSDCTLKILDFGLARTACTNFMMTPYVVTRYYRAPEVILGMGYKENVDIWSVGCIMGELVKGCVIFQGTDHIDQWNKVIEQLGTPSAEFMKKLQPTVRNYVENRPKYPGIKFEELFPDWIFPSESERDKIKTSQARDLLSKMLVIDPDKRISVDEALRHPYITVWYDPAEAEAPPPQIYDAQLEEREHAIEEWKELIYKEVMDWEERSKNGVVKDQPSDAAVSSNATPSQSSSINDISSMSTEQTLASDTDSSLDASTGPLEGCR

[6] = molecular target: cGMP-dependent protein kinase 1 (Homo sapiens, UniProt Q13976);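 note: value from a kinome panel screen with PRKG1 as the panel member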
Sequence of cGMP-dependent protein kinase 1 (Q13976 whole entry): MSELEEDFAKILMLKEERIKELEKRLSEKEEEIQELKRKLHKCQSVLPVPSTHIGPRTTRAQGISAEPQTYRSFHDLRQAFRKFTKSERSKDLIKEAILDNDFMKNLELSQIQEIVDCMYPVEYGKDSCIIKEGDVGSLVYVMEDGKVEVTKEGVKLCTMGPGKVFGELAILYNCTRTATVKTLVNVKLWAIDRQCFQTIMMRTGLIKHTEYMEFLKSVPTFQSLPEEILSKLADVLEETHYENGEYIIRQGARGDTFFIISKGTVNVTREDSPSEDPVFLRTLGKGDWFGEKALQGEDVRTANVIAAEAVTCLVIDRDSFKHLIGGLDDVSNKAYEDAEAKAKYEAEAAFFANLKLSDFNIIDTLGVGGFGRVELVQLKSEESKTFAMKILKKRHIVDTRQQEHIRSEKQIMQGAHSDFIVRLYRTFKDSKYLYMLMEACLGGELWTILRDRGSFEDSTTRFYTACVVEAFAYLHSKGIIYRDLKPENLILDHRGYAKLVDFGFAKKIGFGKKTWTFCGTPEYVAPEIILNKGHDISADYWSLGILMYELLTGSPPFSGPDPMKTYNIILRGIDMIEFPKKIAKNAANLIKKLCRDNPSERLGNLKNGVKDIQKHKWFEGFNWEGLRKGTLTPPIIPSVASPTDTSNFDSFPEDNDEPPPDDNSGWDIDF

[7] = molecular target: Mitogen-activated protein kinase 13 (Homo sapiens, UniProt O15264)
[8] = molecular target: Protein kinase C iota type (Homo sapiens, UniProt P41743);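 note: measured within a kinome-wide kinase panel, PRKCI as panel member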
Sequence of Protein kinase C iota type (P41743 whole entry): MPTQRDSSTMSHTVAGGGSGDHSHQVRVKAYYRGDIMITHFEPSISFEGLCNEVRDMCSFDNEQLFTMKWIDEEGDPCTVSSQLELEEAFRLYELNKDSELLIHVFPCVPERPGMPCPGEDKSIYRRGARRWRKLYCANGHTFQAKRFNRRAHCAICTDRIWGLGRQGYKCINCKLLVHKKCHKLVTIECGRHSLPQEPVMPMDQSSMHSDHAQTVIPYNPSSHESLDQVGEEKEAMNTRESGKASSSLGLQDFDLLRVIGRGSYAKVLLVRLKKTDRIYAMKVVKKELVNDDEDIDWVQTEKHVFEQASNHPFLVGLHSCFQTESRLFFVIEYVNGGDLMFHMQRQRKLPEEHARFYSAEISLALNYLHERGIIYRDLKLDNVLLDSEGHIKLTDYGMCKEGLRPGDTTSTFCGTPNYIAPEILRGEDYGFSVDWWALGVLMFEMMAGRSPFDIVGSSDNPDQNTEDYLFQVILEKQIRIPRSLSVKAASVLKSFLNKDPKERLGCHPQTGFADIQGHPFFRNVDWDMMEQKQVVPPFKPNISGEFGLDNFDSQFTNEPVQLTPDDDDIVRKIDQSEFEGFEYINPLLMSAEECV

[9] = molecular target: 5'-AMP-activated protein kinase catalytic subunit alpha-1 (Homo sapiens, UniProt Q13131)
[10] = molecular target: Dual specificity tyrosine-phosphorylation-regulated kinase 1A (Homo sapiens, UniProt Q13627);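 note: measured against DYRK1A as one member of a broad kinome profiling panel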
[11] = molecular target: Ribosomal protein S6 kinase alpha-3 (Homo sapiens, UniProt P51812);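 note: measured within a kinome-wide profiling panel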
Sequence of Ribosomal protein S6 kinase alpha-3 (P51812 whole entry): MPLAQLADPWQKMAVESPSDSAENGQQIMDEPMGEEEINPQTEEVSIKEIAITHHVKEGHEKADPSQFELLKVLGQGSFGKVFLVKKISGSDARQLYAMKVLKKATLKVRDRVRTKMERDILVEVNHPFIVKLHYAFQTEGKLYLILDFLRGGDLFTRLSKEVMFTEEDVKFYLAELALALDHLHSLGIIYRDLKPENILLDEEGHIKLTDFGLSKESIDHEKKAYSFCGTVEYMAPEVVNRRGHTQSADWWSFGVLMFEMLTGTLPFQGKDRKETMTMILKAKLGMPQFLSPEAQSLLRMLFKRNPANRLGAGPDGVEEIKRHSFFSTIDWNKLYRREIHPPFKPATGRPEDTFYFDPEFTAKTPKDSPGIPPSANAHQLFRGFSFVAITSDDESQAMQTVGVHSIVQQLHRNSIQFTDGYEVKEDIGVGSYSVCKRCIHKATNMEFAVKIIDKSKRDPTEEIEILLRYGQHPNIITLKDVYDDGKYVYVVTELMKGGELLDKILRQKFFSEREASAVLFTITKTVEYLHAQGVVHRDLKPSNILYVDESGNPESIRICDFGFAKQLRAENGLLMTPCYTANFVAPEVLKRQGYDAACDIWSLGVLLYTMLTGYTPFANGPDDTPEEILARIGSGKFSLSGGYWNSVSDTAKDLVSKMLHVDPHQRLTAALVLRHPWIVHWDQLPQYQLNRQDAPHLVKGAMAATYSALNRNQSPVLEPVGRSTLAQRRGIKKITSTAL

[12] = molecular target: Glycogen synthase kinase-3 alpha (Homo sapiens, UniProt P49840);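 note: GSK3A result taken from a broad kinome-wide kinase panel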
Sequence of Glycogen synthase kinase-3 alpha (P49840 whole entry): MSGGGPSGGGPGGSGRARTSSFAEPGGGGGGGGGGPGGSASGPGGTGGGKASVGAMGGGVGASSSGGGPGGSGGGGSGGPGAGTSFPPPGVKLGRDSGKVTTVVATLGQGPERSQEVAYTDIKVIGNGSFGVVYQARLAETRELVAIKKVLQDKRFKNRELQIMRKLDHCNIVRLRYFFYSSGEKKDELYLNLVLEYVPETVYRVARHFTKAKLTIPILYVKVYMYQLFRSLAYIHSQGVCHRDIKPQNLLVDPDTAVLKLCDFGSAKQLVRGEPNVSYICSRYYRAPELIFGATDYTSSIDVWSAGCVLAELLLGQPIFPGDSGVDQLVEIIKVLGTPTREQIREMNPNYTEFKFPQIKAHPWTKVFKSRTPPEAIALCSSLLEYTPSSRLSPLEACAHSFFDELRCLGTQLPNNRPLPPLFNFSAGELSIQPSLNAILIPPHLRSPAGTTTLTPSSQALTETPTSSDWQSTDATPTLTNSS

[13] = molecular target: MAP kinase-interacting serine/threonine-protein kinase 2 (Homo sapiens, UniProt Q9HBH9)
Sequence of MAP kinase-interacting serine/threonine-protein kinase 2 (Q9HBH9 whole entry): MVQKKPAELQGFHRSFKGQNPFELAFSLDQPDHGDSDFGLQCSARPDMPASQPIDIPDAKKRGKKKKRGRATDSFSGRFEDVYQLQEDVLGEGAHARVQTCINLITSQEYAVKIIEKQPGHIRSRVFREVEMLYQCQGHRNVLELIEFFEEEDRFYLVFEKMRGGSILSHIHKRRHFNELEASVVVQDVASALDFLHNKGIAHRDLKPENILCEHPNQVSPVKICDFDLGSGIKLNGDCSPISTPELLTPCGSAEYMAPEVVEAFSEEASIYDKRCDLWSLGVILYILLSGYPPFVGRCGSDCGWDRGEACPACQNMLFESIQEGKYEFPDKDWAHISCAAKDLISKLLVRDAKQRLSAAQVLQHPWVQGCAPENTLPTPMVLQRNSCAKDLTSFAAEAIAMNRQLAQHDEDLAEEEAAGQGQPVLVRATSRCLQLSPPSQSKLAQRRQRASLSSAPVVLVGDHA

[14] = molecular target: Megakaryocyte-associated tyrosine-protein kinase (Homo sapiens, UniProt P42679);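 note: affinity measured as one member of a kinase panel (Navigating the Kinome) against MATK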
[15] = molecular target: Serine/threonine-protein kinase D3 (Homo sapiens, UniProt O94806);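 note: determined within a kinase panel screen, with PRKCN as the panel member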
[16] = molecular target: Cyclin-dependent kinase 1 (Homo sapiens, UniProt P06493);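 note: Kinome-wide panel profiling, with the target listed as panel member CDC2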
Sequence of Cyclin-dependent kinase 1 (P06493 whole entry): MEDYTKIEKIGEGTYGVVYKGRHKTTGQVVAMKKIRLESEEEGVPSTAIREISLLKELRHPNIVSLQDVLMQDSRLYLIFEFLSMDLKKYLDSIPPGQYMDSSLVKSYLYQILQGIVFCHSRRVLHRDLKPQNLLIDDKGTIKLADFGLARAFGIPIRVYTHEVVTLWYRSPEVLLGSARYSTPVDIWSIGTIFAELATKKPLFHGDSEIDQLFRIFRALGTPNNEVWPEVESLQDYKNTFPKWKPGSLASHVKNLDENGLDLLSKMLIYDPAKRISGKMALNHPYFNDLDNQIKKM

[17] = molecular target: Serine/threonine-protein kinase Chk1 (Homo sapiens, UniProt O14757);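 note: measured as one member of a kinome-wide kinase profiling panel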
Sequence of Serine/threonine-protein kinase Chk1 (O14757 whole entry): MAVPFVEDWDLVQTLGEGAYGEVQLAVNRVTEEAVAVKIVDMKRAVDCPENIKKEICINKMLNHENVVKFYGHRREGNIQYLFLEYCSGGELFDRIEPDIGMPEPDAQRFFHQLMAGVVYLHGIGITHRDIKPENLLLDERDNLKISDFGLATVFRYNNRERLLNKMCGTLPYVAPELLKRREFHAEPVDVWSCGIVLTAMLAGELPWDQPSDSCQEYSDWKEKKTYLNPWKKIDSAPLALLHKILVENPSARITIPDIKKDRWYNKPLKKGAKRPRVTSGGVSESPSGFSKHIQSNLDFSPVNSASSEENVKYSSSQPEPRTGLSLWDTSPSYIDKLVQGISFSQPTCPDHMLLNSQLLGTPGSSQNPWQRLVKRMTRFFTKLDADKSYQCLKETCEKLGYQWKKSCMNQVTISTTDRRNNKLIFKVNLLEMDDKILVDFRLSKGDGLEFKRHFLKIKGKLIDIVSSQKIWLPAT

[18] = molecular target: Serine/threonine-protein kinase Nek4 (Homo sapiens, UniProt P51957)

Sequence of Serine/threonine-protein kinase BRSK1 (Q8TDC3 whole entry): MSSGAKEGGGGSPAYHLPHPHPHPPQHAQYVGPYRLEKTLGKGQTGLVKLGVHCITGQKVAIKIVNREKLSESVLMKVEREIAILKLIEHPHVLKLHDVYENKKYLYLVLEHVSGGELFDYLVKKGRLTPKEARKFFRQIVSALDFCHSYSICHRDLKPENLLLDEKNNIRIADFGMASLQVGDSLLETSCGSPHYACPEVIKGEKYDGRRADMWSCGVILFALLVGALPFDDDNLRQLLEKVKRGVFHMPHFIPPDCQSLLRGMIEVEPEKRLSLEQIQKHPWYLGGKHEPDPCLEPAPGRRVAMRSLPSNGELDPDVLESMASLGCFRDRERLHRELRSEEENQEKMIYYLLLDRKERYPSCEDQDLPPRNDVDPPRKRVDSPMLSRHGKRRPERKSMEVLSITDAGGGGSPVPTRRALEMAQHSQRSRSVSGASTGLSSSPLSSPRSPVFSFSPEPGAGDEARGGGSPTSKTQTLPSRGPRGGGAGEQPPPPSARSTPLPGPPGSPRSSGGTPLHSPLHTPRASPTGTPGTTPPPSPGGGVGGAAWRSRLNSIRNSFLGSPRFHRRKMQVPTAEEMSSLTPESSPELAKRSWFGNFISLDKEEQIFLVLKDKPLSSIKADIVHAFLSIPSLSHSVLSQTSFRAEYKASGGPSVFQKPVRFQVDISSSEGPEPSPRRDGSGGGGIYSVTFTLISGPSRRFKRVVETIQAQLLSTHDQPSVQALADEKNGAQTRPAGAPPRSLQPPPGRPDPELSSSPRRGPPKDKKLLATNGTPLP

- Ki [1]: > 10 µM (inactive)
- Ki [2]: > 10 µM (inactive)
- Ki [3]: > 7.94 µM (inactive)
- Ki [4]: > 7.94 µM (inactive)
- Ki [5]: > 3.98 µM (inactive)
- Ki [6]: > 2 µM (inactive)
- Ki [7]: > 7.94 µM (inactive)
- Ki [8]: > 5.01 µM (inactive)
- Ki [9]: > 1.58 µM (inactive)
- Ki [10]: 0.316 µM (active)
- Ki [11]: > 7.94 µM (inactive)
- Ki [12]: > 7.94 µM (inactive)
- Ki [13]: > 10 µM (inactive)
- Ki [14]: > 2 µM (inactive)
- Ki [15]: > 10 µM (inactive)
- Ki [16]: > 7.94 µM (inactive)
- Ki [17]: > 7.94 µM (inactive)
- Ki [18]: > 6.31 µM (inactive)
SMILES: Cn1cncc1C(OCc1c(-c2ccc(OC(F)(F)F)cc2)cc(C#N)c(=O)n1C)c1ccc(C#N)cc1 (stereo not drawn)
